According to ChEMBL document CHEMBL1201862, “PubChem BioAssay data set” (2004):
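The compound was tested at five concentrations on cells cultured in 96-well plates, with a 48-hour exposure period. Abbreviation: GI50, concentration required for 50% inhibition of growth.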 Activity calls are given as the source filed them. Cut-off read from the data, not from the text of the source: active = GI50 up to about 1.1 µM and inactive = higher.

What was measured:
Test in all cases: inhibition of tumour cell growth, NCI panel, 48 h
SNB-75 = test system: SNB-75
COLO 205 = test system: COLO 205
NCI-H23 = test system: NCI-H23
HCC 2998 = test system: HCC 2998
UACC-62 = test system: UACC-62
SK-MEL-5 = test system: SK-MEL-5
HOP-62 = test system: HOP-62
UACC-257 = test system: UACC-257
OVCAR-8 = test system: OVCAR-8
A549 = test system: A549
MCF7 = test system: MCF7
IGROV-1 = test system: IGROV-1
MDA-MB-231 = test system: MDA-MB-231
SF-295 = test system: SF-295
U-251 = test system: U-251
M14 = test system: M14
RPMI-8226 = test system: RPMI-8226
UO-31 = test system: UO-31
SF-539 = test system: SF-539
NCI/ADR-RES = test system: NCI/ADR-RES
SF-268 = test system: SF-268
SK-OV-3 = test system: SK-OV-3
SK-MEL-2 = test system: SK-MEL-2
K562 = test system: K562
Hs-578T = test system: Hs-578T
RXF 393 = test system: RXF 393
T47D = test system: T47D
786-0 = test system: 786-0
SNB-19 = test system: SNB-19
HCT-116 = test system: HCT-116
Malme-3M = test system: Malme-3M
NCI-H460 = test system: NCI-H460
TK-10 = test system: TK-10
HT-29 = test system: HT-29
NCI-H522 = test system: NCI-H522
OVCAR-4 = test system: OVCAR-4
EKVX = test system: EKVX
HCT-15 = test system: HCT-15
SR = test system: SR
SK-MEL-28 = test system: SK-MEL-28
CAKI-1 = test system: CAKI-1
LOX IMVI = test system: LOX IMVI
SN12C = test system: SN12C
OVCAR-5 = test system: OVCAR-5
HOP-92 = test system: HOP-92
SW-620 = test system: SW-620
A498 = test system: A498
OVCAR-3 = test system: OVCAR-3
MOLT-4 = test system: MOLT-4
MDA-MB-435 = test system: MDA-MB-435
BT-549 = test system: BT-549
KM12 = test system: KM12
MDA-N = test system: MDA-N
DU-145 = test system: DU-145
ACHN = test system: ACHN
PC-3 = test system: PC-3
CCRF-CEM = test system: CCRF-CEM
HL-60 = test system: HL-60
NCI-H226 = test system: NCI-H226

Compound: Nc1ncn(C/C=C/c2ccccc2)c2ncnc1-2
- GI50 (SNB-75): 70.3 µM (inactive)
- GI50 (COLO 205): > 100 µM (inactive)
- GI50 (NCI-H23): > 100 µM (inactive)
- GI50 (HCC 2998): > 100 µM (inactive)
- GI50 (UACC-62): > 100 µM (inactive)
- GI50 (SK-MEL-5): > 100 µM (inactive)
- GI50 (HOP-62): > 100 µM (inactive)
- GI50 (UACC-257): > 100 µM (inactive)
- GI50 (OVCAR-8): > 100 µM (inactive)
- GI50 (A549): > 100 µM (inactive)
- GI50 (MCF7): > 100 µM (inactive)
- GI50 (IGROV-1): > 100 µM (inactive)
- GI50 (MDA-MB-231): > 100 µM (inactive)
- GI50 (SF-295): > 100 µM (inactive)
- GI50 (U-251): > 100 µM (inactive)
- GI50 (M14): > 100 µM (inactive)
- GI50 (RPMI-8226): > 100 µM (inactive)
- GI50 (UO-31): > 100 µM (inactive)
- GI50 (SF-539): > 100 µM (inactive)
- GI50 (NCI/ADR-RES): > 100 µM (inactive)
- GI50 (SF-268): > 100 µM (inactive)
- GI50 (SK-OV-3): > 100 µM (inactive)
- GI50 (SK-MEL-2): > 100 µM (inactive)
- GI50 (K562): 8.93 µM (inactive)
- GI50 (Hs-578T): > 100 µM (inactive)
- GI50 (RXF 393): > 100 µM (inactive)
- GI50 (T47D): > 100 µM (inactive)
- GI50 (786-0): > 100 µM (inactive)
- GI50 (SNB-19): > 100 µM (inactive)
- GI50 (HCT-116): > 100 µM (inactive)
- GI50 (Malme-3M): > 100 µM (inactive)
- GI50 (NCI-H460): > 100 µM (inactive)
- GI50 (TK-10): > 100 µM (inactive)
- GI50 (HT-29): 50.9 µM (inactive)
- GI50 (NCI-H522): 78.2 µM (inactive)
- GI50 (OVCAR-4): > 100 µM (inactive)
- GI50 (EKVX): 32.4 µM (inactive)
- GI50 (HCT-15): > 100 µM
- GI50 (SR): 21.4 µM (inactive)
- GI50 (SK-MEL-28): > 100 µM (inactive)
- GI50 (CAKI-1): > 100 µM (inactive)
- GI50 (LOX IMVI): > 100 µM (inactive)
- GI50 (SN12C): > 100 µM (inactive)
- GI50 (OVCAR-5): > 100 µM (inactive)
- GI50 (HOP-92): > 100 µM (inactive)
- GI50 (SW-620): > 100 µM (inactive)
- GI50 (A498): 75.3 µM (inactive)
- GI50 (OVCAR-3): > 100 µM (inactive)
- GI50 (MOLT-4): 16.6 µM (inactive)
- GI50 (MDA-MB-435): > 100 µM (inactive)
- GI50 (BT-549): > 100 µM (inactive)
- GI50 (KM12): > 100 µM (inactive)
- GI50 (MDA-N): > 100 µM (inactive)
- GI50 (DU-145): > 100 µM (inactive)
- GI50 (ACHN): > 100 µM (inactive)
- GI50 (PC-3): > 100 µM (inactive)

Compound: COc1ccc(N/N=C2\CCOc3ccc(C)cc3C2=O)cc1
- GI50 (COLO 205): 23.4 µM (inactive)
- GI50 (CCRF-CEM): 16.3 µM (inactive)
- GI50 (HCC 2998): 13.6 µM (inactive)
- GI50 (UACC-62): 6.81 µM (inactive)
- GI50 (SK-MEL-5): 19.1 µM (inactive)
- GI50 (HOP-62): 39.2 µM (inactive)
- GI50 (UACC-257): 14.9 µM (inactive)
- GI50 (OVCAR-8): 31.8 µM (inactive)
- GI50 (A549): 21.3 µM (inactive)
- GI50 (MCF7): 14.4 µM (inactive)
- GI50 (IGROV-1): 17.7 µM (inactive)
- GI50 (MDA-MB-231): 14.4 µM (inactive)
- GI50 (SF-295): 10.3 µM (inactive)
- GI50 (U-251): 20.9 µM (inactive)
- GI50 (M14): 26.9 µM (inactive)
- GI50 (RPMI-8226): 25.5 µM (inactive)
- GI50 (UO-31): 24 µM (inactive)
- GI50 (SF-539): 40.6 µM (inactive)
- GI50 (NCI/ADR-RES): 9.4 µM (inactive)
- GI50 (SF-268): 35.5 µM (inactive)
- GI50 (SK-OV-3): 18.2 µM (inactive)
- GI50 (SK-MEL-2): 16.8 µM (inactive)
- GI50 (K562): 4.43 µM (inactive)
- GI50 (Hs-578T): 25.1 µM (inactive)
- GI50 (T47D): 2.14 µM (inactive)
- GI50 (786-0): 17.4 µM (inactive)
- GI50 (SNB-19): 39.7 µM (inactive)
- GI50 (HCT-116): 19.5 µM (inactive)
- GI50 (Malme-3M): 11.1 µM (inactive)
- GI50 (NCI-H460): 13.7 µM (inactive)
- GI50 (TK-10): 55.6 µM (inactive)
- GI50 (HT-29): 7.8 µM (inactive)
- GI50 (NCI-H522): 24.7 µM (inactive)
- GI50 (OVCAR-4): 14.5 µM (inactive)
- GI50 (EKVX): 21.3 µM (inactive)
- GI50 (HCT-15): 5.52 µM
- GI50 (SR): 15.6 µM (inactive)
- GI50 (HL-60): 11.9 µM (inactive)
- GI50 (SK-MEL-28): 32.3 µM (inactive)
- GI50 (CAKI-1): 27.9 µM (inactive)
- GI50 (LOX IMVI): 12.4 µM (inactive)
- GI50 (SN12C): 40.6 µM (inactive)
- GI50 (OVCAR-5): 91.4 µM (inactive)
- GI50 (HOP-92): 18.1 µM (inactive)
- GI50 (SW-620): 20 µM (inactive)
- GI50 (A498): 59.8 µM (inactive)
- GI50 (OVCAR-3): 43.2 µM (inactive)
- GI50 (MOLT-4): 11.1 µM (inactive)
- GI50 (MDA-MB-435): 3.18 µM (inactive)
- GI50 (BT-549): 24.1 µM (inactive)
- GI50 (KM12): 5.08 µM (inactive)
- GI50 (MDA-N): 3.98 µM (inactive)
- GI50 (DU-145): 51.3 µM (inactive)
- GI50 (NCI-H226): 27.4 µM (inactive)
- GI50 (ACHN): 12.4 µM (inactive)
- GI50 (PC-3): 10.6 µM (inactive)
